The experiment deals with T1, Androgen Receptor (AR) (Homo sapiens, UniProt P10275, T878A).
T1 construct: cell based immuno-fluorescence assay using the LNCaP prostate epithelial cell line; endogenous in cells; host or cells: LNCaP clone FGC (ATCC CRL-1740)
T1 sequence (P10275 1-920 T878A): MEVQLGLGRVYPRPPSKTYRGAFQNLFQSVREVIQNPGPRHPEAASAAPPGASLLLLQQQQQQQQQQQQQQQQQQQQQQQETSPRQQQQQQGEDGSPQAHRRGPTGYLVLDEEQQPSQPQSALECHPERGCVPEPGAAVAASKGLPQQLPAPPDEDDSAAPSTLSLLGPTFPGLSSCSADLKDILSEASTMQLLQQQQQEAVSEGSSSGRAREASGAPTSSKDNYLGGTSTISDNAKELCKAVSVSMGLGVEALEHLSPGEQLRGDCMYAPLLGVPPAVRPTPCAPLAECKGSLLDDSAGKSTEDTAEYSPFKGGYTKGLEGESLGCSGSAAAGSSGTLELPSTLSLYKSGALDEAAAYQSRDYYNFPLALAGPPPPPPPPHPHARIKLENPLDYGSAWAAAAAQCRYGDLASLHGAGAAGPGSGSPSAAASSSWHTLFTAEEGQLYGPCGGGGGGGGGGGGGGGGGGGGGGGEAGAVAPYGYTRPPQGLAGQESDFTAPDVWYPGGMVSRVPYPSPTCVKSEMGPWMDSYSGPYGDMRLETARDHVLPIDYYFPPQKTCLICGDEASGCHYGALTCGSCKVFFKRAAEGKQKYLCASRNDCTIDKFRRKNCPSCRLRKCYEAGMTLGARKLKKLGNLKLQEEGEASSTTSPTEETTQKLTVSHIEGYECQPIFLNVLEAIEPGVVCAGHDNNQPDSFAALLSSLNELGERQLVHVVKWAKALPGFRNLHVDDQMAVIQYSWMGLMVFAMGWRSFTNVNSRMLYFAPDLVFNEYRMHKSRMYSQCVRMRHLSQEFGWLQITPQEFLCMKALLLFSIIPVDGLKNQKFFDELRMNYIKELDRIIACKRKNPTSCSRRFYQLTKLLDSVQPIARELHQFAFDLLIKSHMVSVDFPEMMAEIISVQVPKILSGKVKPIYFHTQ
The experiment is described as follows: LNCaP Androgen Receptor Down-regulation Cell Assay (immunofluorescence end point). The experiment is classed as cell-based. Conditions: LNCaP prostate carcinoma cells, compound incubation 20-22 hours, 50% reduction of the AR signal; read-out: Androgen Receptor Down-regulation Assay (a) IC50/μM. The essentials: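 LNCaP cells in medium with 5% charcoal-stripped FBS were plated overnight, then treated with a compound dilution series for 20-22 h at 37° C. After fixation, permeabilisation and immunostaining, AR-associated green fluorescence was quantified by laser-scanning microplate cytometry; AR down-regulation expressed as IC50 from fitted dose-response curves.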
`Fc1cc(CN2CCN(c3ccc4nnc(C(F)F)n4n3)CC2)cc(C(F)F)c1` [Example 784, 3-(difluoromethyl)-6-[4-[3-(difluoromethyl)-5-fluorobenzyl]piperazin-1-yl][1,2,4]triazolo[4,3-b]pyridazine]: the DC50 came to 2.2 µM.

For the compound `Cc1cc(CN2CC3CN(c4ccc5nnc(C(F)(F)F)n5n4)CC3C2)ccn1` (stereo not shown) [Example 785, 6-[5-[(2-methylpyridin-4-yl)methyl]hexahydropyrrolo[3,4-c]pyrrol-2(1H)-yl]-3-(trifluoromethyl)[1,2,4]triazolo[4,3-b]pyridazine], the DC50 turned out to be 1.7 µM.

For `FC(F)(F)c1nnc2ccc(N3CC4CN(Cc5ccccn5)CC4C3)nn12` (stereo not shown) [Example 786], the DC50 came to 8.4 µM.

In the case of `COc1ncccc1CN1CC2CN(c3ccc4nnc(C(F)(F)F)n4n3)CC2C1` (stereo not shown) [Example 788], the DC50 came out at 2.2 µM.

On to `Fc1cncc(CN2CC3CN(c4ccc5nnc(C(F)(F)F)n5n4)CC3C2)c1` (stereo not shown) [Example 789], for which the DC50 turned out to be 2.1 µM.

In the case of `FC(F)(F)c1nnc2ccc(N3CC4CN(Cc5cccnc5Cl)CC4C3)nn12` (stereo not shown) [Example 790], the DC50 stood at 2 µM.

On to `FC(F)(F)c1nnc2ccc(N3CC4CN(Cc5ccc(Cl)nc5)CC4C3)nn12` (stereo not shown) [Example 791], for which the DC50 stood at 0.96 µM.

For `COc1ccc(CN2CC3CN(c4ccc5nnc(C(F)(F)F)n5n4)CC3C2)cn1` (stereo not shown) [Example 793], the DC50 is 1.6 µM.

`FC(F)(F)c1nnc2ccc(N3CC4CN(Cc5cncc(Br)c5)CC4C3)nn12` (stereo not shown) [Example 794]: the DC50 is 1.1 µM.

In the case of `Fc1ncc(Br)cc1CN1CC2CN(c3ccc4nnc(C(F)(F)F)n4n3)CC2C1` (stereo not shown) [Example 795], the DC50 worked out at 2.4 µM.

Consider `FC(F)(F)c1nnc2ccc(N3CC4CN(Cc5cccnc5Br)CC4C3)nn12` (stereo not shown) [Example 796], for which the DC50 came to 0.63 µM.

Regarding `COc1cncc(CN2CC3CN(c4ccc5nnc(C(F)(F)F)n5n4)CC3C2)c1` (stereo not shown) [Example 797], the DC50 came out at 2.4 µM.

Take `FC(F)(F)c1nnc2ccc(N3CC4CN(Cc5ccc(Br)nc5)CC4C3)nn12` (stereo not shown) [Example 798]: the DC50 was 1 µM.

For the compound `Cc1ncccc1CN1CC2CN(c3ccc4nnc(C(F)(F)F)n4n3)CC2C1` (stereo not shown) [Example 799], the DC50 is 1.6 µM.

For `FC(F)(F)c1nnc2ccc(N3CC4CN(Cc5cnccc5Cl)CC4C3)nn12` (stereo not shown) [Example 800], the DC50 stood at 1.1 µM.

On to `COc1ccncc1CN1CC2CN(c3ccc4nnc(C(F)(F)F)n4n3)CC2C1` (stereo not shown) [Example 803], for which the DC50 came to 7 µM.

Consider `FC(F)(F)c1ncccc1CN1CC2CN(c3ccc4nnc(C(F)(F)F)n4n3)CC2C1` (stereo not shown) [Example 805], for which the DC50 is 1 µM.

As for `COc1cccc(OC2CCN(c3ccc4nnc(C(F)(F)F)n4c3)CC2)c1` [Example 806, 6-[4-(3-methoxyphenoxy)piperidin-1-yl]-3-(trifluoromethyl)[1,2,4]triazolo[4,3-a]pyridine], the DC50 came to 2.3 µM.

With `FC(F)(F)c1nnc2ccc(N3CCN(Cc4c[nH]c5ccccc45)CC3)cn12` [Example 807], the DC50 worked out at 7.5 µM.

Regarding `Fc1ccc2[nH]cc(CN3CCN(c4ccc5nnc(C(F)(F)F)n5c4)CC3)c2c1` [Example 808], the DC50 stood at 1 µM.

On to `Fc1ccc(C(F)F)c(CN2CCN(c3ccc4nnc(C(F)(F)F)n4c3)CC2)c1` [Example 810, 6-[4-[2-(difluoromethyl)-5-fluorobenzyl]piperazin-1-yl]-3-(trifluoromethyl)[1,2,4]triazolo[4,3-a]pyridine], for which the DC50 was 1.9 µM.

For the compound `Fc1cc(Cl)cc(CN2CCN(c3ccc4nnc(C(F)F)n4n3)CC2)c1` [Example 813], the DC50 amounted to 6.8 µM.

Take `Fc1ccc(Cl)c(CN2CCN(c3ccc4nnc(C(F)F)n4n3)CC2)c1` [Example 815]: the DC50 was above 17 µM.

On to `Fc1cc(CN2CCN(c3ccc4nnc(C(F)F)n4n3)CC2)cc(F)c1F` [Example 818], for which the DC50 stood at 3.8 µM.

For `CS(=O)(=O)c1ccc(F)cc1CN1CCN(c2ccc3nnc(C(F)F)n3n2)CC1` [Example 819], the DC50 is above 18 µM.

Take `Fc1cccc(CN2CCN(c3ccc4nnc(C(F)F)n4n3)CC2)c1Cl` [Example 822]: the DC50 was determined as 1.7 µM.

`Fc1ccc(CN2CCN(c3ccc4nnc(C(F)F)n4n3)CC2)c(F)c1F` [Example 823]: the DC50 turned out to be 4.7 µM.

Regarding `FC(F)c1ccccc1CN1CCN(c2ccc3nnc(C(F)F)n3n2)CC1` [Example 824, 3-(difluoromethyl)-6-[4-[2-(difluoromethyl)benzyl]piperazin-1-yl][1,2,4]triazolo[4,3-b]pyridazine], the DC50 was determined as 1.9 µM.

On to `FC(F)c1cccc(CN2CCN(c3ccc4nnc(C(F)F)n4n3)CC2)c1` [Example 825, 3-(difluoromethyl)-6-[4-[3-(difluoromethyl)benzyl]piperazin-1-yl][1,2,4]triazolo[4,3-b]pyridazine], for which the DC50 came to 1.9 µM.

Regarding `FC(F)c1ccc(CN2CCN(c3ccc4nnc(C(F)F)n4n3)CC2)cc1` [Example 826, 3-(difluoromethyl)-6-[4-[4-(difluoromethyl)benzyl]piperazin-1-yl][1,2,4]triazolo[4,3-b]pyridazine], the DC50 amounted to 1.4 µM.

With `FC(F)c1ccc(CN2CCN(c3ccc4nnc(C(F)(F)F)n4n3)CC2)cc1` [Example 827, 6-[4-[4-(difluoromethyl)benzyl]piperazin-1-yl]-3-(trifluoromethyl)[1,2,4]triazolo[4,3-b]pyridazine], the DC50 turned out to be 1 µM.

On to `C[C@@H]1CN(c2ccc3nnc(C(F)(F)F)n3n2)CCN1Cc1ccncc1` [Example 828, 6-[(3R)-3-methyl-4-(pyridin-4-ylmethyl)piperazin-1-yl]-3-(trifluoromethyl)[1,2,4]triazolo[4,3-b]pyridazine], for which the DC50 was determined as 9.5 µM.

Turning to `C[C@@H]1CN(c2ccc3nnc(C(F)(F)F)n3n2)CCN1Cc1cccc(Br)n1` [Example 830], the DC50 stood at 0.85 µM.

For `C[C@@H]1CN(c2ccc3nnc(C(F)(F)F)n3n2)CCN1Cc1cccnc1Cl` [Example 832], the DC50 is 1.4 µM.

Regarding `C[C@@H]1CN(c2ccc3nnc(C(F)(F)F)n3n2)CCN1Cc1ccc(Cl)nc1` [Example 833], the DC50 was above 12 µM.

Regarding `C[C@@H]1CN(c2ccc3nnc(C(F)(F)F)n3n2)CCN1Cc1cc(Br)cnc1F` [Example 835], the DC50 is 20 µM.

Consider `N#Cc1ccc(CN2CC3CN(c4ccc5nnc(C(F)(F)F)n5n4)CC3C2)cn1` (stereo not shown) [Example 837, 5-[[5-[3-(trifluoromethyl)[1,2,4]triazolo[4,3-b]pyridazin-6-yl]hexahydropyrrolo[3,4-c]pyrrol-2(1H)-yl]methyl]pyridine-2-carbonitrile], for which the DC50 was determined as 1.6 µM.

`N#Cc1ccc(CN2CCN(c3ccc4nnc(C(F)(F)F)n4n3)CC2)cn1` [Example 838, 5-[[4-[3-(trifluoromethyl)[1,2,4]triazolo[4,3-b]pyridazin-6-yl]piperazin-1-yl]methyl]pyridine-2-carbonitrile]: the DC50 stood at 7.6 µM.

Take `Fc1ccc(CN2[C@@H]3CC[C@H]2CN(c2ccc4nnc(C(F)(F)F)n4n2)C3)cc1` [Example 839]: the DC50 is 1.1 µM.

Consider `N#Cc1cccc(CN2[C@@H]3CC[C@H]2CN(c2ccc4nnc(C(F)(F)F)n4n2)C3)c1` [Example 840], for which the DC50 amounted to 2.6 µM.

As to `N#Cc1ccc(CN2[C@@H]3CC[C@H]2CN(c2ccc4nnc(C(F)(F)F)n4n2)C3)cc1` [Example 841], the DC50 is 2.9 µM.

Regarding `Fc1cccc(CN2CCN(c3ccc4nnc(C(F)(F)F)n4n3)CC(F)(F)C2)c1` [Example 842], the DC50 is 1.1 µM.

Regarding `N#Cc1ccc(CN2CCN(c3ccc4nnc(C(F)(F)F)n4n3)CC(F)(F)C2)cc1` [Example 843], the DC50 was 0.93 µM.

For the compound `N#Cc1cccc(CN2CCN(c3ccc4nnc(C(F)(F)F)n4n3)CC(F)(F)C2)c1` [Example 844], the DC50 was 0.78 µM.

On to `FC(F)(F)c1nnc2ccc(N3CCN(c4ccc(OCCn5ccnc5)cc4)CC3)nn12` [Example 845, 6-[4-[4-[2-(1H-imidazol-1-yl)ethoxy]phenyl]piperazin-1-yl]-3-(trifluoromethyl)[1,2,4]triazolo[4,3-b]pyridazine], for which the DC50 was determined as 0.9 µM.

For the compound `FC(F)(F)c1nnc2ccc(N3CCC(c4ccc(OCCn5ccnc5)cc4)CC3)nn12` [Example 846, 6-[4-[4-[2-(1H-imidazol-1-yl)ethoxy]phenyl]piperidin-1-yl]-3-(trifluoromethyl)[1,2,4]triazolo[4,3-b]pyridazine], the DC50 worked out at 0.27 µM.

The record behind these values is patent US8003649B2 (AstraZeneca AB, priority 2007, dated 2011).
